Where only a bound is given, the exact number is not on record here.

The nature of the assay: Inhibition of Phosphatidylinositol 3-kinase.
Regarding `COC[C@H]1OC(=O)c2coc3c2[C@@]1(C)C1=C(C3=O)[C@@H]2CCC(=O)[C@@]2(C)C[C@H]1OC(C)=O` [WORTMANNIN], the half-inhibitory concentration (IC50) worked out at 4.2 nM.

In turn, `C/N=C/C1=C(O)O[C@H](COC)[C@@]2(C)C1=C(O)C(=O)C1=C2[C@H](OC(C)=O)C[C@]2(C)C(=O)CC[C@@H]12` gave an IC50 above 500 nM.

`COC[C@H]1OC(O)=C(C=N)C2=C(O)C(=O)C3=C([C@H](OC(C)=O)C[C@]4(C)C(=O)CC[C@@H]34)[C@]21C` yielded a half-maximal inhibitory concentration (IC50) above 500 nM. With `COC[C@H]1OC(=O)C2=CCOC3=C2[C@@]1(C)C1=C(C3=O)[C@@H]2CCC(=O)[C@@]2(C)C[C@H]1OC(C)=O` the figure was 271 nM; with `CC/N=C/C1=C(O)O[C@H](COC)[C@@]2(C)C1=C(O)C(=O)C1=C2[C@H](OC(C)=O)C[C@]2(C)C(=O)CC[C@@H]12`, above 500 nM. The figure for `COC[C@H]1OC(=O)C23CC2COC2=C3[C@@]1(C)C1=C(C2=O)[C@@H]2CCC(=O)[C@@]2(C)C[C@H]1OC(C)=O` (some centres undefined) is above 500 nM; for `COC[C@H]1OC(=O)C(=C(C)C)C2=C(O)C(=O)C3=C([C@H](OC(C)=O)C[C@]4(C)C(=O)CC[C@@H]34)[C@]21C` it is above 500 nM.

Consider `CCN(/C=C1/C(=O)O[C@H](COC)[C@@]2(C)C1=C(O)C(=O)C1=C2[C@H](OC(C)=O)C[C@]2(C)C(=O)CC[C@@H]12)CC`, for which the IC50 worked out at 80 nM. With `CCC/N=C\C1=C(O)O[C@H](COC)[C@@]2(C)C1=C(O)C(=O)C1=C2[C@H](OC(C)=O)C[C@]2(C)C(=O)CC[C@@H]12` the figure was above 500 nM.

Values taken from ChEMBL document CHEMBL1150451, “Synthetic studies on the furan ring of wortmannin” (Bioorg Med Chem Lett, 1995).
